This note sets out measurements from ChEMBL document CHEMBL4261604, “Design, synthesis and biological evaluation of novel carbamodithioates as anti-proliferative agents against human cancer cells” (Eur J Med Chem, 2018).

Data set [1] can be described thus: Stability of the compound in methanol:water (1:1) up to 12 hrs by HPLC analysis. It counts as physicochemical.
The nature of data set [2]: Stability of the compound in acetonitrile up to 12 hrs by HPLC analysis. It counts as physicochemical.
Data set [3] in a line: Drug degradation in methanol after 10 hrs at 50 degC by HPLC analysis. Particulars: read-out: Drug degradation. Format: physicochemical.
For data set [4], the system named is SMMC-7721. Kind of data set: Cell cycle arrest in human SMMC7721 cells assessed as accumulation at G0/G1 phase at 8 uM after 72 hrs by RNase/propidium iodide staining-based flow cytometric analysis (reference value: 67.26%). It counts as functional. A general note: In flow cytometry, cells or beads pass a laser one at a time.
Data set [5] has as its system SMMC-7721. Kind of data set: Inhibition of colony formation in human SMMC7721 cells at 2 to 8 uM after 7 days by crystal violet staining-based assay. Format: functional, cell-based.
In data set [6] the test system is SMMC-7721. As to the kind of experiment: Induction of apoptosis in human SMMC7721 cells assessed as late apoptotic cells at 4 uM after 72 hrs by Alexa Fluor 488 Annexin/propidium iodide staining-based flow cytometric analysis (reference value: 0.62%). It counts as functional.
Data set [7] relates to SMMC-7721. As to the kind of experiment: Cell cycle arrest in human SMMC7721 cells assessed as accumulation at S phase at 8 uM after 72 hrs by RNase/propidium iodide staining-based flow cytometric analysis (reference value: 7.96%). It counts as functional.
Data set [8] relates to SMMC-7721. As to the kind of experiment: Antiproliferative activity against human SMMC7721 cells assessed as inhibition of cell proliferation at 32 uM after 72 hrs by CCK8 assay. Particulars: SMMC-7721, 72 h. Format: functional. (In general: Formazan colour is commonly taken as a measure of viable cells.)
The test system of a further data set is HeLa. As to the kind of experiment: Antiproliferative activity against human HeLa cells after 72 hrs by CCK8 assay. Format: functional, cell-based.
In data set [9] the test system is SMMC-7721. Kind of data set: Induction of apoptosis in human SMMC7721 cells assessed as necrotic cells at 8 uM after 72 hrs by Alexa Fluor 488 Annexin/propidium iodide staining-based flow cytometric analysis (reference value: […]). Format: functional.
The test system of a further data set is A549. Kind of data set: cells. Particulars: Homo sapiens, A549, 72 h.
Data set [10] has as its system SMMC-7721. Kind of data set: Induction of apoptosis in human SMMC7721 cells assessed as viable cells at 4 uM after 72 hrs by Alexa Fluor 488 Annexin/propidium iodide staining-based flow cytometric analysis (reference value: 91.92%). It counts as functional. Particulars: SMMC-7721, 72 h, read-out: Activity.
In data set [11] the test system is SMMC-7721. As to the kind of experiment: Antiproliferative activity against human SMMC7721 cells assessed as inhibition of cell proliferation at 16 uM after 72 hrs by CCK8 assay. Format: functional. The following applies: SMMC-7721, 72 h.
The subject of data set [12] is SMMC-7721. As to the kind of experiment: Cell cycle arrest in human SMMC7721 cells assessed as accumulation at G2/M phase at 4 uM after 72 hrs by RNase/propidium iodide staining-based flow cytometric analysis (reference value: 24.78%). Format: functional.
Data set [13] concerns SMMC-7721. Kind of data set: Cell cycle arrest in human SMMC7721 cells assessed as accumulation at G0/G1 phase at 4 uM after 72 hrs by RNase/propidium iodide staining-based flow cytometric analysis (reference value: 67.26%). It counts as functional.
The subject of data set [14] is SMMC-7721. As to the kind of experiment: Induction of apoptosis in human SMMC7721 cells assessed as necrotic cells at 4 uM after 72 hrs by Alexa Fluor 488 Annexin/propidium iodide staining-based flow cytometric analysis (reference value: […]). It counts as functional.
Data set [15] relates to SMMC-7721. As to the kind of experiment: Cell cycle arrest in human SMMC7721 cells assessed as accumulation at S phase at 4 uM after 72 hrs by RNase/propidium iodide staining-based flow cytometric analysis (reference value: 7.96%). It counts as functional.
The next data set deals with HCT-116. Kind of data set: cells. Particulars: Homo sapiens, HCT-116, 72 h.
Data set [16] has as its system A-375. Kind of data set: Antiproliferative activity against human A375 cells assessed as inhibition of cell proliferation at 16 uM after 72 hrs by CCK8 assay. It counts as functional. The following applies: A-375, 72 h.
Data set [17] relates to SMMC-7721. Kind of data set: Cell cycle arrest in human SMMC7721 cells assessed as accumulation at G2/M phase at 8 uM after 72 hrs by RNase/propidium iodide staining-based flow cytometric analysis (reference value: 24.78%). Format: functional.
In data set [18] the test system is SMMC-7721. Kind of data set: Induction of apoptosis in human SMMC7721 cells assessed as late apoptotic cells at 8 uM after 72 hrs by Alexa Fluor 488 Annexin/propidium iodide staining-based flow cytometric analysis (reference value: 0.62%). It counts as functional.
Data set [19] concerns SMMC-7721. Kind of data set: Antiproliferative activity against human SMMC7721 cells after 72 hrs by CCK8 assay. Format: functional, cell-based. The following applies: SMMC-7721, 72 h.
The subject of data set [20] is SMMC-7721. Kind of data set: Induction of apoptosis in human SMMC7721 cells assessed as viable cells at 8 uM after 72 hrs by Alexa Fluor 488 Annexin/propidium iodide staining-based flow cytometric analysis (reference value: 91.92%). Format: functional. The following applies: SMMC-7721, 72 h, read-out: Activity.
Data set [21] concerns A-375. Kind of data set: Antiproliferative activity against human A375 cells assessed as inhibition of cell proliferation at 32 uM after 72 hrs by CCK8 assay. It counts as functional. The following applies: A-375, 72 h.
Data set [22] relates to SMMC-7721. Kind of data set: Induction of apoptosis in human SMMC7721 cells assessed as early apoptotic cells at 4 uM after 72 hrs by Alexa Fluor 488 Annexin/propidium iodide staining-based flow cytometric analysis (reference value: 0.70%). It counts as functional.
The test system of data set [23] is SMMC-7721. Kind of data set: Induction of apoptosis in human SMMC7721 cells assessed as early apoptotic cells at 8 uM after 72 hrs by Alexa Fluor 488 Annexin/propidium iodide staining-based flow cytometric analysis (reference value: 0.70%). It counts as functional.
In data set [24] the test system is A-375. As to the kind of experiment: Antiproliferative activity against human A375 cells after 72 hrs by CCK8 assay. Format: functional, cell-based. The following applies: A-375, 72 h.

Structures are written as SMILES. The source made the active and inactive calls. The rule behind the calls is not given here.

Description for A549: Antiproliferative activity against human A549 cells after 72 hrs by CCK8 assay
Description for HCT-116: Antiproliferative activity against human HCT116 cells after 72 hrs by CCK8 assay

`CC(=O)NCCSC(=S)NCCCC[S+](C)[O-]` (stereo unspecified): the Stability entry in data set [1] and in [2] was “Stable” each time.
Consider `COc1ccc(SC(=S)NCCCC[S+](C)[O-])cc1` (stereo unspecified), for which, in data set [3], the degraded at 10 h was less than 6%. The Stability entry in [1] and in [2] was “Unstable” in each case.
In the case of `COc1ccc(SC(=S)NCC/C=C/[S+](C)[O-])cc1` (stereo unspecified), in data set [3], the degraded at 10 h was determined as 25%. Besides, the Stability entry in data set [1] and in data set [2] was “Unstable” each time.
Regarding `CC(=O)NCCSC(=S)NCC/C=C/[S+](C)[O-]` (stereo unspecified), the Stability entry in [1] and in data set [2] was “Stable” throughout.
Regarding `C[S+]([O-])/C=C/CCN=C=S` (stereo unspecified), the degraded at 10 h in data set [3] came out at 60%.
As usually defined, the inhibition is the share of the control response that was lost under treatment. The term IC50 denotes the concentration needed to halve the response being measured. Turning to `C[S+]([O-])CCCCN=C=S` (stereo unspecified) [SULFORAPHANE], the Activity turned out to be 66.19% in the data set on SMMC-7721 [4]; 2.82% in the data set with SMMC-7721 [6]; 5.46% in the data set on SMMC-7721 [7]; 9.59% in the data set with SMMC-7721 [9]; 26.8% in the data set with SMMC-7721 [12]; 68.06% in the data set with SMMC-7721 [13]. Besides, the Activity in the data set on SMMC-7721 [14] was 4.14%; with SMMC-7721 [15], 5.41%; with SMMC-7721 [17] it was 28.35%; in the data set on SMMC-7721 [18] it was 9.09%; in the data set on SMMC-7721 [22], 4.66%; in the data set with SMMC-7721 [23] it was 14.43%. Besides, the inhibition result with SMMC-7721 [5] is “Active”. Besides, the inhibition at 32 µM in the data set with SMMC-7721 [8] came out at 88.3%; in the data set on A-375 [21] it was 77.3%. Moreover, the half-inhibitory concentration (IC50) with HeLa stood at 66.1 µM; with A549, 11.9 µM; in the data set on HCT-116, 36.7 µM; in the data set with SMMC-7721 [19] it was 7.87 µM; with A-375 [24], 24.5 µM. For the same molecule, in the data set with SMMC-7721 [10], the viability at 4 µM is 88.4%. The inhibition at 16 µM was determined as 80.5% with SMMC-7721 [11] and 54% with A-375 [16]. Moreover, the degraded at 10 h in data set [3] is 60%. Moreover, the viability at 8 µM in the data set on SMMC-7721 [20] was 66.9%.
